What was measured:
human CYP11B1 = human CYP11B1 (Homo sapiens (Human), UniProt P15538); assay: Cellular assay for CYP11B1 inhibition (V79MZh11B1 hamster fibroblasts, substrate 11-deoxycorticosterone); conditions: for IC50: read-out: IC50 value CYP11B1, Hamster fibroblasts expressing human CYP11B1, substrate 11-deoxycorticosterone, 100 nM, mean of at least three experiments; for sf: selectivity factor: IC50 (CYP11B2)/IC50 (CYP11B1): ratio IC50 (CYP11B2)/IC50 (CYP11B1)
human CYP11B2 = human CYP11B2 (Homo sapiens (Human), UniProt P19099); assay: Cellular assay for CYP11B2 inhibition (V79MZh11B2 hamster fibroblasts, substrate 11-deoxycorticosterone); conditions: for IC50: read-out: IC50 value CYP11B2, Hamster fibroblasts expressing human CYP11B2, 100 nM, mean of at least three experiments, n.i. = no inhibition at an inhibitor concentration of 500 nM
human CYP11B2, sequence (P19099 25-503): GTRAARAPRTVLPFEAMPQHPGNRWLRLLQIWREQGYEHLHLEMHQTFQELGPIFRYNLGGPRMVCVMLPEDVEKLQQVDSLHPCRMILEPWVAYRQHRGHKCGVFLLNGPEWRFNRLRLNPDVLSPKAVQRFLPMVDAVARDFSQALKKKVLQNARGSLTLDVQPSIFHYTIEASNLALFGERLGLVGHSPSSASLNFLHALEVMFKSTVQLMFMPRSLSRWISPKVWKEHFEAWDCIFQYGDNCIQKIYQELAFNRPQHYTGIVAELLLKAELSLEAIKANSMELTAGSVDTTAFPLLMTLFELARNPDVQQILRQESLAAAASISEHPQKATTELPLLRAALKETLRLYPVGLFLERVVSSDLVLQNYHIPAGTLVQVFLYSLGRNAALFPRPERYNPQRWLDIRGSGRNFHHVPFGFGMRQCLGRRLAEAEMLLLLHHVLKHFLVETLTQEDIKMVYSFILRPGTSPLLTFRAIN

human CYP17 = human CYP17 (Homo sapiens (Human), UniProt P05093); assay: CYP17 inhibition assay (membrane fraction of E. coli expressing human CYP17, substrate progesterone); format: biochemical; conditions: 25 μM, inhibitor concentration 2.0 μM, read-out: inhibition (%) CYP 17
human CYP17, sequence (P05093 whole entry): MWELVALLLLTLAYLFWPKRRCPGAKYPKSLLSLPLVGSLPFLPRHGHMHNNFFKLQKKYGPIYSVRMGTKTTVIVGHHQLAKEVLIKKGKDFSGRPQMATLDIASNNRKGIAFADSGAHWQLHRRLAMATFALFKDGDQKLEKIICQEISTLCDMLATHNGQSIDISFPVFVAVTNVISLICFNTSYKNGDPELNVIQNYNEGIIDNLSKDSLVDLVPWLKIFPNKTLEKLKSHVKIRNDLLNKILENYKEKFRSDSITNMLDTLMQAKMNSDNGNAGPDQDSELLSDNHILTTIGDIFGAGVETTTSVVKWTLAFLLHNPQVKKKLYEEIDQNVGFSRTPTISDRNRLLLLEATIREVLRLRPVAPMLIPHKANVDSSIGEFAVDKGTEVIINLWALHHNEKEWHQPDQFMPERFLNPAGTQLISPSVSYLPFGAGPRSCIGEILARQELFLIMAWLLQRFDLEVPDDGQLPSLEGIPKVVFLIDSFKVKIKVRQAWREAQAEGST
Method: Recombinant E. coli pJL17/OR coexpressing human CYP17 and rat NADPH-P450-reductase were grown and stored as described by Ehmer et al. (J. Steroid Biochem. Mol. Biol., 2000, 75, 57-63)
For isolation of membrane fractions, 5 ml of bacterial suspension with an OD578 of 50 were washed using phosphate buffer (0.05 M, pH 7.4, 1 mM MgCl2, 0.1 mM EDTA and 0.1 mM dithiothreitol). Bacteria were harvested by centrifugation (2000×g) and the pellet was resuspended in 10 ml ice-cold TES buffer (0.1 M tris-acetate, pH 7.8, 0.5 mM EDTA, 0.5 M sucrose). Lysozyme was added with 10 ml of ice-cold water resulting in a concentration of 0.2 mg/ml followed by incubation for 30 min on ice with continuous shaking. Spheroplasts were harvested by centrifugation (12000×g, 10 min), and resuspended in 4 ml of ice-cold phosphate buffer (the same as described above plus 0.5 mM phenylmethylsulfonylfluoride (PMSF)).
After that spheroplasts were sonicated on ice (pulse 20 s on, 30 s off, five times), using a sonicator Sonopuls HD60 (Bandelin, Berlin, Germany) at maximum power. Unbroken cells and debris were pelleted at 3000×g for 7 min, and the supernatant was centrifuged at 50000×g for 20 min at 4° C. The membrane pellet was resuspended in 2 ml of phosphate buffer (the same as described above) with 20% glycerol using an ultra-turrax T25 (IKA-Labortechnik, Staufen, Germany). Protein concentration was determined by the method of Lowry.
The assay was performed as follows: a solution of 6.25 nmol progesterone (in 5 μl methanol) in 140 μl phosphate buffer (0.05 M, pH 7.4, 1 mM MgCl2, 0.1 mM EDTA and 0.1 mM dithiothreitol), 50 μl NADPH generating system (in phosphate buffer with 10 mM NADP, 100 mM glucose-6-phosphate and 2.5 units of glucose-6-phosphate-dehydrogenase) and inhibitor (in 5 μl DMSO) was pre-incubated at 37° C. for 5 min. Control cups were supplemented with 5 μl DMSO without inhibitor. The reaction was started by adding 50 μl of a 1:5 diluted membrane suspension in phosphate buffer (0.8-1.0 mg protein per ml). The maximum DMSO concentration in each sample was 2%. After mixing, incubation was performed for 30 min at 37° C. Subsequently the reaction was stopped with 50 μl 1 N HCl.
Extraction of the steroids was performed by addition of 1.0 ml ethyl acetate and vigorous shaking for 1 min. After a centrifugation step (5 min, 2500×g) the organic phase (0.9 ml) was transferred into a fresh cup containing 0.25 ml of incubation buffer and 50 μl 1 N HCl and mixed again. After centrifugation, 0.8 ml ethyl acetate solution was evaporated to dryness in a fresh cup. After that the steroids were redissolved in solvent for HPLC analysis (Hutschenreuter et. al. J. Enz. Inhib. Med. Chem. 2004, 19, 17-32).
The above experiment was conducted at least three times and a mean value for the CYP17 inhibition calculated.

Human placental CYP19 = Human placental CYP19 (Homo sapiens (Human), UniProt P11511); assay: CYP19 (aromatase) assay, human placental microsomes, 3H2O release; format: biochemical; conditions: substrate androstenedione, 500 nM, inhibitor concentration 500 nM, read-out: inhibition (%) CYP 19
Human placental CYP19, sequence (P11511 whole entry): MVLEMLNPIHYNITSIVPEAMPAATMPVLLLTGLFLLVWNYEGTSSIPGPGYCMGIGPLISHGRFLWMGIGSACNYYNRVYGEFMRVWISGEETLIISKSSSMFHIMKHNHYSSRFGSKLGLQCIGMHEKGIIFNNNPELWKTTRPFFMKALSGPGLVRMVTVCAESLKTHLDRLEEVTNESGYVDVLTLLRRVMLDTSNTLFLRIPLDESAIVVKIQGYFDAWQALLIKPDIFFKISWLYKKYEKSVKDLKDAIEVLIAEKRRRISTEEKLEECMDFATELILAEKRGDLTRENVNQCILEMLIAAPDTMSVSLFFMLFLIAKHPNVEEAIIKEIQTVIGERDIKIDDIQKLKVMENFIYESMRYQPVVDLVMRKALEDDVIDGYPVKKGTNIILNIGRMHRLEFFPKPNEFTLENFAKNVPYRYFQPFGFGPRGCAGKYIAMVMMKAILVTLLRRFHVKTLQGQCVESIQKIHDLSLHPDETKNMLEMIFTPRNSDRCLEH
Method: The enzyme was obtained from the microsomal fraction of freshly delivered human term placental tissue according to the procedure of Thompson and Siiteri (Thompson, E. A.; Siiteri, P. K. J. Biol. Chem. 1974, 249, 5364).
The isolated microsomes were suspended in a minimum volume of phosphate buffer (0.05 M, pH 7.4, 20% glycerol). Additionally, DTT (dithiothreitol, 10 mM) and EDTA (1 mM) were added to protect the enzyme from degradation. The enzyme preparation was stored at −70° C.
The assay was performed monitoring enzyme activity by measuring the ^3H2O formed from [1β-^3H]androstenedione during aromatization (Hartmann et al. J. Med. Chem. 1986, 29, 1362-1369). […] The test compounds were dissolved in DMSO and diluted with buffer. The final DMSO concentration in the control and inhibitor incubation was 2%. Each tube was pre-incubated for 5 min at 30° C. in a water bath. Microsomal protein was added to start the reaction (0.1 mg). The total volume for each incubation was 0.25 ml. The reaction was terminated by the addition of 200 μl of a cold 1 mM HgCl2 solution. After addition of 200 μl of an aqueous dextran-coated charcoal (DCC) suspension (2%), the vials were shaken for 20 min and centrifuged at 1500×g for 5 min to separate the charcoal-absorbed steroids. The supernatant was assayed for ^3H2O by counting in a scintillation mixture using a β-counter. The calculation of the IC50 values was performed by plotting the percent inhibition vs. the concentration of inhibitor on a semi-log plot.
The above experiment was conducted at least three times and a mean value for the CYP19 inhibition calculated.

human CYP11B1, sequence (P15538 25-503): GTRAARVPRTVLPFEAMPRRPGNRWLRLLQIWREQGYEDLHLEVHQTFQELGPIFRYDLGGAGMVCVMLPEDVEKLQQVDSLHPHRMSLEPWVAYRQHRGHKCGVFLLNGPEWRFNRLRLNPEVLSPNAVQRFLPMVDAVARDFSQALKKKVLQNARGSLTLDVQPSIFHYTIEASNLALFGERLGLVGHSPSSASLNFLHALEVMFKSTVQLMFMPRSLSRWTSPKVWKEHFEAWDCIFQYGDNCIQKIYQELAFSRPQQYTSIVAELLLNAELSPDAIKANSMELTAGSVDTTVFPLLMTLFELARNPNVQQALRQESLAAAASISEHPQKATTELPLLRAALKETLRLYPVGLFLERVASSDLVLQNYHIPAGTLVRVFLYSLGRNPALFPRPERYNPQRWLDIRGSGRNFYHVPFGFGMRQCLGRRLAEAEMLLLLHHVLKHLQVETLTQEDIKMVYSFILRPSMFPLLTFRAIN

SMILES | IC50 (human CYP11B1) [nM] | IC50 (human CYP11B2) [nM] | inhibition at 2 µM (human CYP17) [%] | inhibition at 0.5 µM (Human placental CYP19) [%] | sf: selectivity factor: IC50 (CYP11B2)/IC50 (CYP11B1) (human CYP11B1) | IC50 value CYP11B2 (human CYP11B2; Hamster fibroblasts expressing human CYP11B2, 100 nM, mean of at least three experiments, n.i. = no inhibition at an inhibitor concentration of 500 nM)
COc1ccc(-c2ccc(Cn3ccnc3)cn2)cn1 [Compound 29, 5-Imidazol-1-ylmethyl-6′-methoxy-[2,3′]bipyridinyl] | > 1000 | > 1000 |  |  |  | 
N#Cc1ncccc1Cn1ccnc1 [Compound 4, 3-Imidazol-1-ylmethyl-pyridine-2-carbonitrile] | 971 | > 1000 |  |  |  | 
c1ccc2c(-c3ccc(Cn4ccnc4)cn3)cccc2c1 [Compound 23, 5-Imidazol-1-ylmethyl-2-naphthalen-1-yl-pyridine] | 42 | 2080 | 8 | 5 | 49 | 
COc1ccc(-c2ccc(Cn3ccnc3)cn2)cc1OC [Compound 14, 2-(3,4-Dimethoxy-phenyl)-5-imidazol-1-ylmethyl-pyridine] | > 1000 | > 1000 | 2 |  |  | 
c1ccc2c(-c3ccc(Cn4ccnc4)cn3)cncc2c1 [Compound 30, 4-(5-Imidazol-1-ylmethyl-pyridin-2-yl)-isoquinoline] | 95 | 914 |  |  | 10 | 
c1coc(-c2cc(Cn3ccnc3)cnc2-c2ccco2)c1 [Compound 42, 2,3-Di-furan-2-yl-5-imidazol-1-ylmethyl-pyridine] | 29 | 830 | 6.7 | 2.2 | 29 | 
O=Cc1ccc(-c2ccc(Cn3ccnc3)cn2)s1 [Compound 34, 5-(5-Imidazol-1-ylmethyl-pyridin-2-yl)-thiophene-2-carbaldehyde] | 62 | 968 | 5 | 0 | 16 | 
c1cc(Cn2ccnc2)ccn1 [Compound 2, 4-Imidazol-1-ylmethyl-pyridine] | 663 | > 1000 |  |  |  | 
Brc1ccc(Cn2ccnc2)cn1 [Compound 1a, 5-Imidazol-1-ylmethyl-2-bromopyridine] | 500 | > 1000 |  |  |  | 
c1cncc(-c2ccc(Cn3ccnc3)cn2)c1 [Compound 26, 5-Imidazol-1-ylmethyl-[2,3′]bipyridinyl] | 502 | 3960 |  |  | 8 | 
COc1ccc(-c2ccc(Cn3ccnc3)cn2)cc1 [Compound 13, 5-Imidazol-1-ylmethyl-2-(4-methoxy-phenyl)pyridine] | 782 | > 1000 | 0 |  |  | 
CCOC(=O)c1cncn1[C@H](C)c1ccccc1 [ETO, etomidate, reference compound] |  | 0.1 |  |  |  | 
c1ccc2sc(-c3ccc(Cn4ccnc4)cn3)cc2c1 [Compound 37, 2-Benzo[b]thiophen-2-yl-5-imidazol-1-ylmethyl-pyridine] | 269 | 281 |  |  | 1.0 | 
O=Cc1ccc(-c2ccc(Cn3ccnc3)cn2)cc1 [Compound 21, 4-(5-Imidazol-1-ylmethyl-pyridin-2-yl)-benzaldehyde] | 246 | > 1000 | 0 |  |  | 
Fc1ccc(-c2ccc(Cn3ccnc3)cn2)cc1 [Compound 9, 2-(4-Fluoro-phenyl)-5-imidazol-1-ylmethyl-pyridine] | 213 | 2150 | 5 |  | 10 | 
Fc1cccc(-c2ccc(Cn3ccnc3)cn2)c1 [Compound 8, 2-(3-Fluoro-phenyl)-5-imidazol-1-ylmethyl-pyridine] | 320 | > 1000 | 1 |  |  | 
N#Cc1cccc(-c2ccc(Cn3ccnc3)cn2)c1 [Compound 19, 3-(5-Imidazol-1-ylmethyl-pyridin-2-yl)-benzonitrile] | 409 | > 1000 |  |  |  | 
N#Cc1ccc(-c2ccc(Cn3ccnc3)cn2)cc1 [Compound 20, 4-(5-Imidazol-1-ylmethyl-pyridin-2-yl)-benzonitrile] | 782 | > 1000 |  |  |  | 
c1ccc(-c2ccc(Cn3ccnc3)cn2)cc1 [Compound 1, 5-Imidazol-1-ylmethyl-2-phenyl-pyridine] | 152 | 2770 |  |  | 18 | 
c1ccc2oc(-c3ccc(Cn4ccnc4)cn3)cc2c1 [Compound 41, 2-Benzo[b]furan-2-yl-5-imidazol-1-ylmethyl-pyridine] | 500 | > 1000 |  |  |  | 
c1cncc(Cn2ccnc2)c1 [Compound 3, 3-Imidazol-1-ylmethyl-pyridine] | 816 | > 1000 |  |  |  | 
Fc1ccc(-c2ccc(Cn3ccnc3)cn2)cc1F [Compound 10, 2-(3,4-Difluoro-phenyl)-5-imidazol-1-ylmethyl-pyridine] | 329 | 1660 | 0 |  | 5 | 
Clc1ccc(-c2ccc(Cn3ccnc3)cn2)s1 [Compound 33, 2-(5-Chloro-thiophen-2-yl)-5-imidazol-1-ylmethyl-pyridine] | 362 | 929 |  |  | 2.6 | 
c1cc(-c2ccc(Cn3ccnc3)cn2)ccn1 [Compound 27, 5-Imidazol-1-ylmethyl-[2,4′]bipyridinyl] | 139 | 487 |  |  | 3.5 | 
c1ccc2cc(-c3ccc(Cn4ccnc4)cn3)ccc2c1 [Compound 24, 5-Imidazol-1-ylmethyl-2-naphthalen-2-yl-pyridine] | 246 | 782 |  |  | 3.2 | 
Clc1ncc(Cn2ccnc2)cc1Br [Compound 6, 3-Bromo-2-chloro-5-imidazol-1-ylmethyl-pyridine] | 168 | 576 |  |  | 3.4 | 
c1cn(Cc2ccc(-c3cncnc3)nc2)cn1 [Compound 28, 5-(5-Imidazol-1-ylmethyl-pyridin-2-yl)-pyrimidine] | 971 |  |  |  |  | n.i.^d

Reference: patent US9394290B2, “Selective CYP11B1 inhibitors for the treatment of cortisol dependent diseases” (UNIVERSITAET DES SAARLANDES CAMPUS SAARBRUECKEN, priority 2010, dated 2016)
